In patent US11208405B2, “Pyrrole derivatives as PLK1 inhibitors” (SENTINEL ONCOLOGY LIMITED, priority 2017, dated 2021):
Counter-ions that a name gives are not always drawn.

What was measured:
[1] = target: T1, PLK2 (Homo sapiens, UniProt Q9NYY3); assay: Kinase selectivity assay (DiscoverX KinomeScreen), PLK2; type: binding; details: PLK2, 5 μM; read-out: % Control
T1 construct: purchased DiscoverX
Procedure: (§1) The compound of Example 33 was tested for off-target activity against a panel of fifty five kinases bearing functional or structural similarity to PLK1 at a concentration of 5 μM using the DiscoverX KinomeScreen assay.

[2] = target: T2, TTK (Homo sapiens, UniProt P33981); assay: Kinase selectivity assay (DiscoverX KinomeScreen), TTK; type: binding; details: read-out: % Control
T2 construct: purchased DiscoverX
T2 sequence (P33981 whole entry): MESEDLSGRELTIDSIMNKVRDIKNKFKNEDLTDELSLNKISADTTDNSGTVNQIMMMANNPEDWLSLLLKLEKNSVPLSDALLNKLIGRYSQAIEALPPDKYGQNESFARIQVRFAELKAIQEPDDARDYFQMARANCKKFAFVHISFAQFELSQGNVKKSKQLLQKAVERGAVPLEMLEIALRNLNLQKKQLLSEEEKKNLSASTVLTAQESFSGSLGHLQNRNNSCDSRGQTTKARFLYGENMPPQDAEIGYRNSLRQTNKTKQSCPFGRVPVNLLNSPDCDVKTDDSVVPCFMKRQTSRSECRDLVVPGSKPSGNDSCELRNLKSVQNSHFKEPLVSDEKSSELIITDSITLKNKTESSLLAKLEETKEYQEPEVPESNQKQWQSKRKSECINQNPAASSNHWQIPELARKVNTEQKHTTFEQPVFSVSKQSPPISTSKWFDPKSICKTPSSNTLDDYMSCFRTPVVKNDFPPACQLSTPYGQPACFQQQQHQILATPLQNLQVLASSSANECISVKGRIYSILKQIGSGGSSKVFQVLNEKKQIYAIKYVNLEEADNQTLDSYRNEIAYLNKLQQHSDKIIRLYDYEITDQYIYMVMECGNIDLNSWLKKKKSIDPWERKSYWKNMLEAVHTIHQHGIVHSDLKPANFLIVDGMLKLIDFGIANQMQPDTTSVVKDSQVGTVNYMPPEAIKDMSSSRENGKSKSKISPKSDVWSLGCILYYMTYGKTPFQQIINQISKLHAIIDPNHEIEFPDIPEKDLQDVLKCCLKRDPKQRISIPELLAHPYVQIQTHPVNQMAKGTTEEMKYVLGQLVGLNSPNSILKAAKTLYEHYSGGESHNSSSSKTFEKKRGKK
Procedure: as §1

[3] = target: T3, PKMYT1 (Homo sapiens, UniProt Q99640); assay: Kinase selectivity assay (DiscoverX KinomeScreen), PKMYT1; type: binding; details: PKMYT1, 5 μM; read-out: % Control
T3 construct: purchased DiscoverX
T3 sequence (Q99640 whole entry): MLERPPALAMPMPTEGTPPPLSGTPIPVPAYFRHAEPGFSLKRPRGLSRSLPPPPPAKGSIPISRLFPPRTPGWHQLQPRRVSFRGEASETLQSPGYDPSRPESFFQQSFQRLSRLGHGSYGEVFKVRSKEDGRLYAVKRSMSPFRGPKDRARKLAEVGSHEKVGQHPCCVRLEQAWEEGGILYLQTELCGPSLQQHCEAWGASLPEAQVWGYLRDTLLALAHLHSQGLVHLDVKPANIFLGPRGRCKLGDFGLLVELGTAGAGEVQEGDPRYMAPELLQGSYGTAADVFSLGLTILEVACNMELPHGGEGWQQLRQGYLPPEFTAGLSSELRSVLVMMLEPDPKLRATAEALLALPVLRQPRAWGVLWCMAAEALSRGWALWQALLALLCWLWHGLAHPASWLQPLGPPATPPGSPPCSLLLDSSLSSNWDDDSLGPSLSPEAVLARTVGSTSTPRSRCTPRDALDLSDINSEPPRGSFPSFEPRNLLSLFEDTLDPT
Procedure: as §1

[4] = Determination of oral bioavailability (plasma pharmacokinetics i.v. and p.o.); type: in vivo, Male CD-1 mice; details: mice
Procedure: Determination of Oral Bioavailability The oral bioavailability of the compound of Example 33 was determined in mice and compared with the bioavailability following intravenous injection using the following protocol. […] N=3 mice per time point with 15 ul plasma per aliquot.

[5] = tested on: glioblastoma cell line 687586; assay: Glioblastoma cancer cell viability, cell line 687586; type: cell-based
Procedure: (§2) Assay to Measure the Effects of Compounds of the Invention on Glioblastoma Cancer Cell Viability
(§3) The compound of Example 33 was tested for inhibitory activity against the glioblastoma cell lines in Table 7 below.

[6] = target: T4, ULK2 (Homo sapiens, UniProt Q8IYT8); assay: Kinase selectivity assay (DiscoverX KinomeScreen), ULK2; type: binding; details: ULK2, 5 μM; read-out: % Control
T4 construct: purchased DiscoverX
Procedure: as §1

[7] = target: T5, CAMKK1 (Homo sapiens, UniProt Q8N5S9); assay: Kinase selectivity assay (DiscoverX KinomeScreen), CAMKK1; type: binding; details: CAMKK1, 5 μM; read-out: % Control
T5 construct: purchased DiscoverX
Procedure: as §1

[8] = tested on: glioblastoma cell line 949094; assay: Glioblastoma cancer cell viability, cell line 949094; type: cell-based
Procedure: as §2, §3

[9] = target: T6, BMP2K (Homo sapiens, UniProt Q9NSY1); assay: Kinase selectivity assay (DiscoverX KinomeScreen), BMP2K; type: binding; details: read-out: % Control
T6 construct: purchased DiscoverX
Procedure: as §1

[10] = target: T7, CDK2 (Homo sapiens, UniProt P24941); assay: Kinase selectivity assay (DiscoverX KinomeScreen), CDK2; type: binding; details: CDK2, 5 μM; read-out: % Control
T7 construct: purchased DiscoverX
Procedure: as §1

[11] = tested on: HeLa cells; assay: Arresting cells in mitosis (Mitotic Index, phosphorylated Histone H3 immunofluorescence); type: cell-based; details: Homo sapiens, HeLa; separate experiment; read-out: EC50 in the mitotic arrest assay
Method in brief: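 HeLa cells exposed 24 h to 2-fold serial compound dilutions, in triplicate, then formaldehyde-fixed and immunostained for phospho-histone H3 and MPM2 with Hoechst counterstain. High-content imaging gave the mitotic index (% pH3-positive cells); EC50 fitted from MI versus concentration.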

[12] = target: T8, STK36 (Homo sapiens, UniProt Q9NRP7); assay: Kinase selectivity assay (DiscoverX KinomeScreen), STK36; type: binding; details: STK36, 5 μM; read-out: % Control
T8 construct: purchased DiscoverX
T8 sequence (Q9NRP7 whole entry): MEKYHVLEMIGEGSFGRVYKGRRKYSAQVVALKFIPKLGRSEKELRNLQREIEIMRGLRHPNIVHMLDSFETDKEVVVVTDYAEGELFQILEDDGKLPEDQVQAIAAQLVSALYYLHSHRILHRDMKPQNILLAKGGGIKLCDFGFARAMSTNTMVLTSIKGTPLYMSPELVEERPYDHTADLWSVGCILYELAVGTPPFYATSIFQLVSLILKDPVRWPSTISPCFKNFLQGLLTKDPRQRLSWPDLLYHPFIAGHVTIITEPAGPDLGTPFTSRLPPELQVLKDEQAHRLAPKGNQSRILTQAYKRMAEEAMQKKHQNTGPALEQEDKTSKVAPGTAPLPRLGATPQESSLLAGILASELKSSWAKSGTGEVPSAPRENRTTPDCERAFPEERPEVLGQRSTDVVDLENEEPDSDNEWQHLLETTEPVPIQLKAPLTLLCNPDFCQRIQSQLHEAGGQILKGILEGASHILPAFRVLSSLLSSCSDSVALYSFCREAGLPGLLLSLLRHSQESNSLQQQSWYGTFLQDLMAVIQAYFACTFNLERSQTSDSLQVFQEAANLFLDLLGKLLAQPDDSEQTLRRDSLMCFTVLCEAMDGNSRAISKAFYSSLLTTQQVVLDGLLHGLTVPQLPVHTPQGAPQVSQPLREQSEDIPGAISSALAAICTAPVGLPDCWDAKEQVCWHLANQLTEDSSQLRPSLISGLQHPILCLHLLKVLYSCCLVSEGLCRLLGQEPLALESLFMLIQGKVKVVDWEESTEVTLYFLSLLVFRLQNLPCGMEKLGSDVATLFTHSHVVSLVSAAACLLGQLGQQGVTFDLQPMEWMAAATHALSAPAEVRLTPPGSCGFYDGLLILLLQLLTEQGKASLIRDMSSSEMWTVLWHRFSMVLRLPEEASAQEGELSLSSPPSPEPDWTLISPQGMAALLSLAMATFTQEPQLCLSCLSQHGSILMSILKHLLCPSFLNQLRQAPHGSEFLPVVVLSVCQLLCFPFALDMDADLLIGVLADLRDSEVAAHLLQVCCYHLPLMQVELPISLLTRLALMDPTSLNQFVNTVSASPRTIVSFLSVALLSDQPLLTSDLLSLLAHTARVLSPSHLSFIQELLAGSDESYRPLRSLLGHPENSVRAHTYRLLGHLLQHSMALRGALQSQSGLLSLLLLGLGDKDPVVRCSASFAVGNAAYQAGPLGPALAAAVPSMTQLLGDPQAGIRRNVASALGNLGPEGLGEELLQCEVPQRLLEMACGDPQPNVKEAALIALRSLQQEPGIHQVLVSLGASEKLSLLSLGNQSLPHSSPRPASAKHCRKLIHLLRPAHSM
Procedure: as §1

[13] = target: T9, NEK11 (Homo sapiens, UniProt Q8NG66); assay: Kinase selectivity assay (DiscoverX KinomeScreen), NEK11; type: binding; details: NEK11, 5 μM; read-out: % Control
T9 construct: purchased DiscoverX
Procedure: as §1

[14] = tested on: glioblastoma cell line 908144; assay: Glioblastoma cancer cell viability, cell line 908144; type: cell-based
Procedure: as §2, §3

[15] = target: T10, AURKC (Homo sapiens, UniProt Q9UQB9); assay: Kinase selectivity assay (DiscoverX KinomeScreen), AURKC; type: binding; details: read-out: % Control
T10 construct: purchased DiscoverX
Procedure: as §1

[16] = tested on: glioblastoma cell line 906868; assay: Glioblastoma cancer cell viability, cell line 906868; type: cell-based
Procedure: as §2, §3

[17] = target: T11, STK16 (Homo sapiens, UniProt O75716); assay: Kinase selectivity assay (DiscoverX KinomeScreen), STK16; type: binding; details: STK16, 5 μM; read-out: % Control
T11 construct: purchased DiscoverX
T11 sequence (O75716 whole entry): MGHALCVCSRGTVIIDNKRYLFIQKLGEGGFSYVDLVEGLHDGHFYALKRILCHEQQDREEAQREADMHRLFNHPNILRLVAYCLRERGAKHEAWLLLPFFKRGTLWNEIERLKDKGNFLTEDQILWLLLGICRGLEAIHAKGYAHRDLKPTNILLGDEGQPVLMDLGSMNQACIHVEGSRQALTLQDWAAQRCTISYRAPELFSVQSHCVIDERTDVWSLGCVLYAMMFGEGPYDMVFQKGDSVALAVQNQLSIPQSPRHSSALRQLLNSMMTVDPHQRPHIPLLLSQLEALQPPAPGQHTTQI
Procedure: as §1

[18] = target: T12, TLK1 (Homo sapiens, UniProt Q9UKI8); assay: Kinase selectivity assay (DiscoverX KinomeScreen), TLK1; type: binding; details: TLK1, 5 μM; read-out: % Control
T12 construct: purchased DiscoverX
Procedure: as §1

[19] = target: T13, NEK1 (Homo sapiens, UniProt Q96PY6); assay: Kinase selectivity assay (DiscoverX KinomeScreen), NEK1; type: binding; details: NEK1, 5 μM; read-out: % Control
T13 construct: purchased DiscoverX
T13 sequence (Q96PY6 whole entry): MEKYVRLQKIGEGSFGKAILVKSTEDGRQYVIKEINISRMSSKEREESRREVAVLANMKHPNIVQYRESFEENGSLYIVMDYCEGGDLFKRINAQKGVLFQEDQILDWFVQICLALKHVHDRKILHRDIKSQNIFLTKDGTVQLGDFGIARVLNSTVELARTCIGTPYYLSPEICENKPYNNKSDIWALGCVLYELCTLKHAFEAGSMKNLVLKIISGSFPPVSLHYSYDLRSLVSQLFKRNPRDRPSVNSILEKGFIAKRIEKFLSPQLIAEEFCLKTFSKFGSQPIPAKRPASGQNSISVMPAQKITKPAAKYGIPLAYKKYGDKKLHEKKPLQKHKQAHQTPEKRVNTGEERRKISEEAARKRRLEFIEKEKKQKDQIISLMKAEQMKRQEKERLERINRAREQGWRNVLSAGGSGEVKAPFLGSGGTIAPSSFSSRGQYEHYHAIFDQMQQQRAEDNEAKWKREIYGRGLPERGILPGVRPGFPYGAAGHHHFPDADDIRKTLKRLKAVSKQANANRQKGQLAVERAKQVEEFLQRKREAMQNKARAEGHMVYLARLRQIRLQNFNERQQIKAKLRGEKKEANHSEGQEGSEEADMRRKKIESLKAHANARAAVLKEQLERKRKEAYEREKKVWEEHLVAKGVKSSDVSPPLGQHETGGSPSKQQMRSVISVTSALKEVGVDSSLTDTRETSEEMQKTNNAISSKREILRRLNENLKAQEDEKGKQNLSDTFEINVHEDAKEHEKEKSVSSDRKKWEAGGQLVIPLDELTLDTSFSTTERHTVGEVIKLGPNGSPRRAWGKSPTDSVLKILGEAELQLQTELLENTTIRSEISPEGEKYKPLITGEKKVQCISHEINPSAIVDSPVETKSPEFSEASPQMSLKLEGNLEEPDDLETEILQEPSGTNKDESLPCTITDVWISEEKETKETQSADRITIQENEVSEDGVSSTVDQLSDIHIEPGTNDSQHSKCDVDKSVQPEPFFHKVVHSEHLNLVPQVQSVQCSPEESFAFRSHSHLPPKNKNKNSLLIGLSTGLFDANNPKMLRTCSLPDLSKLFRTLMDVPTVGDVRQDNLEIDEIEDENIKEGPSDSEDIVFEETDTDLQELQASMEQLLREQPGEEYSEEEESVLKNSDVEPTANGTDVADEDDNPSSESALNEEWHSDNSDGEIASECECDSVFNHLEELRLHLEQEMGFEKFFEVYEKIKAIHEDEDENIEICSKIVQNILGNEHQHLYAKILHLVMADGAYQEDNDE
Procedure: as §1

[20] = male, CD-1, mouse, 2 mg/kg IV, plasma
[21] = male, CD-1, mouse, 10 mg/Kg PO, plasma

T1 sequence (Q9NYY3 whole entry): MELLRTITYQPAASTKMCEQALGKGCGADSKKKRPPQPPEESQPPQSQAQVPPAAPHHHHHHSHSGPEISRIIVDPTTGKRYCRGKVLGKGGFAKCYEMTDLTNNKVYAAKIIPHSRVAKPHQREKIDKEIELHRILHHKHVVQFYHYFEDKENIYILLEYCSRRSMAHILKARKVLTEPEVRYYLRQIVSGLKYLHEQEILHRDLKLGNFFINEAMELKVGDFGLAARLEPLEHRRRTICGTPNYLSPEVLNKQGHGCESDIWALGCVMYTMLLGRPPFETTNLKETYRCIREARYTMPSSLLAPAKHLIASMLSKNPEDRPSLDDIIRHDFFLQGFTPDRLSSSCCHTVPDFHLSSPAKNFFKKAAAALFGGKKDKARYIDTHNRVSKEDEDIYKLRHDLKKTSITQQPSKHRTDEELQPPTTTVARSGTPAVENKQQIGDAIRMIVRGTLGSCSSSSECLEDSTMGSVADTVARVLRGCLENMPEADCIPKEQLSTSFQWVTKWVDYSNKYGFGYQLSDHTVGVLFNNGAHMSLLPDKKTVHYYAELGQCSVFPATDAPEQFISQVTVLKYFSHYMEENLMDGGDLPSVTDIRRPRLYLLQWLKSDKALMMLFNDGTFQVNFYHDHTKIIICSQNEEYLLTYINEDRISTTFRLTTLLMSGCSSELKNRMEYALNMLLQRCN

**Q.** Which results are given for `CN(C)CCNC(=O)c1ccc(-c2ccc(-c3ccc(Cl)cc3)n2-c2ccccc2C(F)(F)F)cc1` [Example 33, 4-[5-(4-chlorophenyl)-1-[2-(trifluoromethyl)phenyl]pyrrol-2-yl]-N-[2-(dimethylamino)ethyl]benzamide Hydrochloride]?
**A.** remaining activity at 5 µM [1]: 85%; remaining activity at 5 µM [2]: 83%; remaining activity at 5 µM [3]: 100%; AUC(0-inf) [4, 20]: 2.1 µg·h/mL; Cmax [4, 20]: 0.873 µg/mL; half-life ([4]; male, CD-1, mouse, 2 mg/kg IV, plasma, read-out: T½ (converted)): 13 h; Vd ([4]; male, CD-1, mouse, 2 mg/kg IV, plasma, read-out: Vss): 17 L/kg; AUC(0-inf) [4, 21]: 9.8 µg·h/mL; Cmax [4, 21]: 0.415 µg/mL; CI ([4]; 2 mg/kg IV, plasma): 0.96 L/h/kg; F ([4]; 10 mg/Kg PO versus 2 mg/kg IV): 93%; T½ ([4]; 10 mg/Kg PO, plasma): 15 h; Vz ([4]; 10 mg/Kg PO, plasma): 23 L/kg; IC50 [5]: 0.489 µM; remaining activity at 5 µM [6]: 100%; remaining activity at 5 µM [7]: 91%; IC50 [8]: 0.709 µM; remaining activity at 5 µM [9]: 85%; remaining activity at 5 µM [10]: 89%; EC50 [11]: 0.061 ± 0.01 µM; remaining activity at 5 µM [12]: 91%; remaining activity at 5 µM [13]: 100%; IC50 [14]: 2.42 µM; remaining activity at 5 µM [15]: 85%; IC50 [16]: 0.252 µM; remaining activity at 5 µM [17]: 92%; remaining activity at 5 µM [18]: 99%; remaining activity at 5 µM [19]: 100%
